Results: patent EP0320002A1, “Inhalant” (KYORIN SEIYAKU KABUSHIKI KAISHA, priority 1987, dated 1989)
≈ marks a conversion by molar mass, not a printed value.

Assay: solubility of ibudilast in water
Format: physicochemical

solubility: 150 µg/mL (≈ 651 µM)
Structure (SMILES): CC(C)C(=O)c1c(C(C)C)nn2ccccc12 [ibudilast, 3-isobutyryl-2-isopropylpyrazolo[1,5-a]pyridine]
